Publication PMC6572293, “Antihypertensive Effects of Corn Silk Extract and Its Novel Bioactive Constituent in Spontaneously Hypertensive Rats: The Involvement of Angiotensin-Converting Enzyme Inhibition” (Molecules, 2019)
pIC50: −log10 of the molar value. Read-outs that look alike come from different tables or passages of the source. Peptide text beside a SMILES is read from it.

How the values were obtained:
SHRs [1] = experiment: Tail diastolic blood pressure in spontaneously hypertensive rats; type: in vivo, rat (male SHR); details: SHR, oral, various dosages of CSBp5, 0 and 1 h; n = 6
Description: Male SHRs (200–250 g, 10 week-old) were purchased from National Laboratory Animal Center (Taipei, Taiwan). Rats were maintained under a 12 h day/12 h night cycle and had free access to water and food. Rat experiments were conducted under ethics approval from China Medical University Animal Care and Use Committee (Permit No. 104-75-N).
(§1) SHRs with tail SBP ≥ 180 mmHg were randomly divided into five groups with six rats per group. Rats were given intraperitoneally or orally with 400 μL of distilled water (blank), captopril (Catalog No. C4042), or various dosages of CSE or peptide (dissolved in water). SBP was measured by a tail-cuff apparatus (Non-Invasive Blood Pressure System, Panlab, Barcelona, Spain). Rats were placed in a warm holder kept at 37 ± 1 °C for 10 min before the measurement. Changes in SBP were calculated by subtracting SBP at indicated time point from SBP at 0 h.
Antihypertensive Effects of Corn Silk Extract and
Its Novel Bioactive Constituent in Spontaneously
Hypertensive Rats: The Involvement of
Angiotensin-Converting Enzyme Inhibition
Chia-Cheng Li 1, Yu-Chen Lee 2,3, Hsin-Yi Lo 1, Yu-Wen Huang 4, Chien-Yun Hsiang 5,* and […]
μmol/kg captopril or various dosages of CSBp5. Tail diastolic blood pressure was measured
at 0 and 1 h. Data are expressed as diastolic blood pressure (mmHg) (top panel) or changes in […]

ACE (serum) [2] = target: T1, ACE (serum) (Mus musculus, UniProt P09470); experiment: ACE activity assay, Z-FHL substrate; type: biochemical, mouse (BALB/c serum); details: various concentrations
T1 construct: Mouse sera collected from normal BALB/c mice were used as the source of soluble somatic ACE; from tissue; host or cells: serum of normal BALB/c mice
T1 sequence (P09470 35-1237 limits assumed): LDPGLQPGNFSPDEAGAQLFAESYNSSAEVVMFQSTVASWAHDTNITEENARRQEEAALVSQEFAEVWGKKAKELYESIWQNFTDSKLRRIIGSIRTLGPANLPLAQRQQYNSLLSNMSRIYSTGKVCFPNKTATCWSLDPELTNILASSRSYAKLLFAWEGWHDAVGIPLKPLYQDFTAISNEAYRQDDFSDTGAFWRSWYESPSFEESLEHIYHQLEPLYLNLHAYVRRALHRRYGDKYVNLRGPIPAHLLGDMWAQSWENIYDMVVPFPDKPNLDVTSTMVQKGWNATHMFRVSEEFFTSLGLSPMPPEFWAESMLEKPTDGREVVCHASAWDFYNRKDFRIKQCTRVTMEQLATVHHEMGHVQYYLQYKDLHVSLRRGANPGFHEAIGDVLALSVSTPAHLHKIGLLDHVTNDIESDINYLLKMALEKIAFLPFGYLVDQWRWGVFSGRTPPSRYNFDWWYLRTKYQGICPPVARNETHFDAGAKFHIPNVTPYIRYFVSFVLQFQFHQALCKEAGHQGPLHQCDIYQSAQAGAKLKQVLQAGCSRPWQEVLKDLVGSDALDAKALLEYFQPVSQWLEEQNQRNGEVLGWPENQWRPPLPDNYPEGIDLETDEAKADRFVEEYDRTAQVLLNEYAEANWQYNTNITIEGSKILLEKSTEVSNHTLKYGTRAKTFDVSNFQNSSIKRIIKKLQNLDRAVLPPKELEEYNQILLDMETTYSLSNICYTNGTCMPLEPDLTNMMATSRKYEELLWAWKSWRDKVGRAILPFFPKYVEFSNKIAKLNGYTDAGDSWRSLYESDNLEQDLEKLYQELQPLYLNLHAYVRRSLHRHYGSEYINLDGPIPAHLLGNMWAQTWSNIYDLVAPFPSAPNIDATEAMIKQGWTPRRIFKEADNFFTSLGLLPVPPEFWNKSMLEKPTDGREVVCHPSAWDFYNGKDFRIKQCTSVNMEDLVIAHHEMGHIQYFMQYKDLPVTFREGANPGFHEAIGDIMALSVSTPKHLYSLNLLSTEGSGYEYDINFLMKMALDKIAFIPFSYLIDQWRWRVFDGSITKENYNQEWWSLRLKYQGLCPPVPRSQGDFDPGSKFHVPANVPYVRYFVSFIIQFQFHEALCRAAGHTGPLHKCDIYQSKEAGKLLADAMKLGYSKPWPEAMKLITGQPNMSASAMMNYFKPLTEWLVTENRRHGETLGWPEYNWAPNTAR
Description: (§2) Various amounts of CSBp5 were mixed with mouse sera in the presence of H-HL or Z-FHL substrate, and the ACE activity was determined by measuring the fluorescence-labeled hydrolyzed substrates.
(§3) ACE activity assay was performed as described previously with a slight modification. Mouse sera collected from normal BALB/c mice were used as the source of soluble somatic ACE. ACE activity in mouse serum was determined as described previously. […] To correct the intrinsic fluorescence of mouse serum, blank was performed according to the aforementioned procedures without inhibitors.

ACE (serum) [3] = target: T1, ACE (serum); experiment: ACE activity assay, H-HL substrate; type: biochemical, mouse (BALB/c serum)
Description: as §2, §3

[4] = test system: spontaneously hypertensive rats (SHRs); experiment: Tail-cuff systolic blood pressure in spontaneously hypertensive rats; type: in vivo, rat (male SHR); details: SHR; for Decrease of SBP, intraperitoneal: 1 h after injection
Description: as §1, with “Male SHRs (200–250 g, 10 week-old) were purchased from National Laboratory Animal Center (Taipei, Taiwan). Rats were maintained under a 12 h day/12 h night cycle and had free access to water and food. Rat experiments were conducted under ethics approval from China Medical University Animal Care and Use Committee (Permit No. 104-75-N). SHRs” for “SHRs”

ACE N-domain = ACE N-domain selective inhibitor; cited from earlier work
Excerpt: Somatic ACE is composed of two similar catalytic domains (N- and C-domains).

[5] = test system: healthy human subjects and animals; details: exogenously administered angiotensin I, no reference given; cited from earlier work
Excerpt: CSE was a protein-rich extract and the protein content of CSE was 10.86%. Moreover, the well-known ACE inhibitors are amino acid or dipeptide drugs. Therefore, we proposed that there were bioactive peptides responsible for the anti-hypertensive activities of CSE. Proteomics and bioinformatics analyses were further applied to identify the anti-hypertensive bioactive peptides in CSE. Peptides with anti-hypertensive potentials have been determined from corn. For example, dipeptide Ala-Tyr (AY) has been identified from corn gluten meal, a major byproduct of corn wet milling. AY affects the ACE act ...

ACE = details: cited from earlier work
Excerpt: (§4) Food peptides with anti-ACE activities have been identified from plants and animals. For example, oligopeptides FDGIP and AIDPVRA are ACE inhibitor derived from Caulerpa lentillifera. […] Peptides from auto-digested reishi (Ganoderma lingzhi) extract show potent inhibition against ACE and hypotensive activities in SHRs. Lacto-tr ... || CSE was a protein-rich extract and the protein content of CSE was 10.86%. Moreover, the well-known ACE inhibitors are amino acid or dipeptide drugs. Therefore, we proposed that there were bioactive peptides responsible for the anti-hypertensive activities of CSE. Proteomics and bioinformatics analyses were further applied to identify the anti-hypertensive bioactive peptides in CSE. Peptides with anti-hypertensive potentials have been determined from corn. For example, dipeptide Ala-Tyr (AY) has been identified from corn gluten meal, a major byproduct of corn wet milling. AY affects the ACE act ...

SHRs [6] = details: SHR, cited from earlier work
Excerpt: as §4

[7] = from Coix glutelin; cited from earlier work
Excerpt: (§5) Food peptides with anti-ACE activities have been identified from plants and animals. For example, oligopeptides FDGIP and AIDPVRA are ACE inhibitor derived from Caulerpa lentillifera. […] Peptides from auto-digested reishi (Ganoderma lingzhi) extract show potent inhibition against ACE and hypotensive activities in SHRs. Lacto-tr ...

endothelial function = details: in vitro; cited from earlier work
Excerpt: as §5

[8] = test system: subjects with blood pressure ranging from normal to mild hypertension; details: intake of tablets containing VPP and IPP; cited from earlier work
Excerpt: as §5

[9] = intraperitoneal, 10 μmol/kg, tail-cuff, mean ± standard error, n = 6

Question: For `CC(C)C[C@H](NC(=O)[C@H](CC(N)=O)NC(=O)[C@H](CC(=O)O)NC(=O)[C@H](Cc1ccccc1)NC(=O)[C@H](CCCCN)NC(=O)[C@@H](N)CO)C(=O)N[C@@H](Cc1ccc(O)cc1)C(=O)NCC(=O)N[C@@H](CS)C(=O)N[C@@H](CCCNC(=N)N)C(=O)O` [CSBp5] (H-SKFDNLYGCR-OH; N-terminus and C-terminus assumed), which “Changes in diastolic blood pressure (in words)” value (SHRs [1]) is on record?
Answer: Its value is “consistent with the changes in SBP”.

Question: What about the “Inhibition of ACE activity, Z-FHL (in words)” value (ACE (serum) [2]) of the same molecule?
Answer: Its value is “inhibited the ACE activity and the inhibition displayed a dose-dependent manner”.

Question: What about the “Domain preference of ACE inhibition (in words)” value (ACE (serum) [3]; H-HL versus Z-FHL hydrolysis) of the same molecule?
Answer: Its value is “a more effective inhibition on the C-domain of ACE”.

Question: What about the “Inhibition of ACE activity, H-HL (in words)” value (ACE (serum) [3]; mouse serum ACE, H-HL, various concentrations) of the same molecule?
Answer: The value was “inhibited the ACE activity and the inhibition displayed a dose-dependent manner”.

Question: And the “Decrease of SBP, intraperitoneal” value [4, 9]?
Answer: Its value is 28.33 ± 12.5 mmHg.

Question: And the “Decrease of SBP, intraperitoneal (in words)” value ([4]; intraperitoneal, various dosages, 1 h)?
Answer: The value was “decreased SBP levels in a dose-dependent manner”.

Question: What about the “Decrease of SBP, oral” value ([4]; oral, 10 μmol/kg, 1 h, tail-cuff, mean ± standard error, n = 6) of the same molecule?
Answer: Its value is 36.78 ± 13.25 mmHg.

Question: And the “Decrease of SBP at 2 h (time course)” value ([4]; oral, 10 μmol/kg)?
Answer: The value was ~30 mmHg.

Question: What about the “Duration of SBP decrease (in words)” value ([4]; oral, 10 μmol/kg, measured at 0, 1, 2, 4 and 6 h) of the same molecule?
Answer: The value was “persistent during a 6-h measurement”.

Question: What about the “Decrease of SBP, oral (in words)” value ([4]; oral, various dosages, 1 h) of the same molecule?
Answer: The value was “decreased the SBP levels in a dose-dependent manner”.

Question: For `CC(=O)N[C@@H](CC(=O)O)C(=O)N[C@@H](Cc1ccccc1)P(=O)(O)C[C@@H](C)C(=O)N[C@@H](C)C(N)=O` [RXP407], which “Effect on blood pressure (in words)” value (ACE N-domain) is on record?
Answer: The value was “no effect on blood pressure”.

Question: What does the source list for `C[C@H](CS)C(=O)N1CCC[C@H]1C(=O)O` [captopril]?
Answer: Angiotensin I-induced elevation of blood pressure (in words) [5]: attenuated or abolished; Decrease of SBP, intraperitoneal [4, 9]: 52.83±19.06 mmHg; Decrease of SBP at 2 h (time course) ([4]; oral, 10 μmol/kg): approximately 60 mmHg; SBP level lower than that of the blank group ([4]; oral, 10 mg/kg, SBP at 0 and 1 h, tail-cuff, mean ± standard error, n = 6): 47.6 ± 4.34 mmHg

Question: For “AIDPVRA [oligopeptide derived from Caulerpa lentillifera]”, which “ACE inhibition (in words)” value (ACE; from Caulerpa lentillifera) is on record?
Answer: Its value is “ACE inhibitor”.

Question: With Ala-Tyr [AY] as the molecule, how does the pIC50 (ACE; read-out: IC50, ACE) read?
Answer: The pIC50 was 4.85.

Question: What about the “Maximal reduction of SBP” value (SHRs [6]; oral, 50 mg/kg, 2 h) of the same molecule?
Answer: The value was 9.5 mmHg.

Question: For “FDGIP [oligopeptide derived from Caulerpa lentillifera]”, which “ACE inhibition (in words)” value (ACE; from Caulerpa lentillifera) is on record?
Answer: The value was “ACE inhibitor”.

Question: For GAAGGAF, which “Antihypertensive effect (in words)” value [7] is on record?
Answer: The value was “significant antihypertensive effect”.

Question: For “Ile-Pro-Pro [IPP, lacto-tripeptide from sour milk]”, which “Endothelial function (in words)” value (endothelial function) is on record?
Answer: Its value is “protect the endothelial function in vitro”.

Question: And the “Improvement in hypertension and side effects (in words)” value [8]?
Answer: The value was “mild improvement in hypertension without side effects”.

Question: And the “ACE inhibition (in words)” value (ACE; sour milk peptides)?
Answer: Its value is “inhibit the ACE activity”.

Question: What about the “Anti-hypertensive effect in SHRs (in words)” value (SHRs [6]) of the same molecule?
Answer: Its value is “exhibit anti-hypertensive effects in SHRs”.

Question: Which “IC50, ACE in vitro” value (ACE) does the source give for “Met-Ile/Leu-Pro-Pro [tetrapeptide from hydrolyzed zein]” here?
Answer: Its value is 70.32 µg/mL.

Question: What about the pIC50 (ACE; read-out: IC50, ACE in vitro) of the same molecule?
Answer: Its pIC50 is 3.81.

Question: Which “Endothelial function (in words)” value (endothelial function) does the source give for “Val-Pro-Pro [VPP, lacto-tripeptide from sour milk]” here?
Answer: Its value is “protect the endothelial function in vitro”.

Question: And the “Improvement in hypertension and side effects (in words)” value [8]?
Answer: The value was “mild improvement in hypertension without side effects”.

Question: What about the “ACE inhibition (in words)” value (ACE; sour milk peptides) of the same molecule?
Answer: Its value is “inhibit the ACE activity”.

Question: And the “Anti-hypertensive effect in SHRs (in words)” value (SHRs [6])?
Answer: The value was “exhibit anti-hypertensive effects in SHRs”.
